We go through four compounds from patent US9359423B2, “Protein involved in detection of cancer metastasis and a treatment thereof” (National University of Singapore, priority 2011, dated 2016).

In series [1] the target is T1, TRPV4 (Homo sapiens, UniProt Q9HBA0). Particulars: cited from earlier work.
For series [2], the system named is E-cadherin, b-catenin and paxillin. The experiment in a line: Expression of cell-adhesion proteins after activation of TRPV4 by PDD. In kind it is cell-based. To be noted: PDD treatment, FIG. 4B. The source says: (§1) FIG. 4A—Silencing of TRPV4 expression was associated with a failure to produce a rise of intracellular Ca2+ upon stimulation with PDD. […] 4C—Activation of TRPV4 by PDD treatment stimulated AKT, FAK and MAPK pathway.
FIG. 5—AKT mediates TRPV4-induced downregulation of E-cadherin and b-catenin. Down regulation of these cytoskeletal proteins correlate with an increase in cancer cell plasticity required for intravasation and extravasation processes during metastasis. Cells were either treated or not treated with PDD (activator of TRPV4) in the presence or absence of AKT inhibitor). Top 1 and 2 panels, inhibition of AKT is confirmed by probing the phosphorylation status of S6, a downstream target of AKT. Bottom 3-5 panels, PDD-induced downregulation of E-cadherin and b-catenin.

Series [3] concerns AKT, FAK and MAPK pathway. The experiment in a line: Pathway activation after activation of TRPV4 by PDD. The series is classed as cell-based. To be noted: PDD treatment, FIG. 4C.
Source text: as §1

The target in a further series is T2, endogenous TRPV4 (Mus musculus, UniProt Q9EPK8).
T2 construct: endogenous in cells
To be noted: read-out: IC50, endogenous TRPV4-mediated response to 4α-PDH; 4α-PDH stimulation; cited from earlier work.

For series [4] the following is noted: cited from earlier work.
For series [5], the target named is T1, TRPV4. To be noted: 4α-phorbol 12,13-didecanoate stimulation; cited from earlier work.

T1 sequence (Q9HBA0 whole entry, species assumed): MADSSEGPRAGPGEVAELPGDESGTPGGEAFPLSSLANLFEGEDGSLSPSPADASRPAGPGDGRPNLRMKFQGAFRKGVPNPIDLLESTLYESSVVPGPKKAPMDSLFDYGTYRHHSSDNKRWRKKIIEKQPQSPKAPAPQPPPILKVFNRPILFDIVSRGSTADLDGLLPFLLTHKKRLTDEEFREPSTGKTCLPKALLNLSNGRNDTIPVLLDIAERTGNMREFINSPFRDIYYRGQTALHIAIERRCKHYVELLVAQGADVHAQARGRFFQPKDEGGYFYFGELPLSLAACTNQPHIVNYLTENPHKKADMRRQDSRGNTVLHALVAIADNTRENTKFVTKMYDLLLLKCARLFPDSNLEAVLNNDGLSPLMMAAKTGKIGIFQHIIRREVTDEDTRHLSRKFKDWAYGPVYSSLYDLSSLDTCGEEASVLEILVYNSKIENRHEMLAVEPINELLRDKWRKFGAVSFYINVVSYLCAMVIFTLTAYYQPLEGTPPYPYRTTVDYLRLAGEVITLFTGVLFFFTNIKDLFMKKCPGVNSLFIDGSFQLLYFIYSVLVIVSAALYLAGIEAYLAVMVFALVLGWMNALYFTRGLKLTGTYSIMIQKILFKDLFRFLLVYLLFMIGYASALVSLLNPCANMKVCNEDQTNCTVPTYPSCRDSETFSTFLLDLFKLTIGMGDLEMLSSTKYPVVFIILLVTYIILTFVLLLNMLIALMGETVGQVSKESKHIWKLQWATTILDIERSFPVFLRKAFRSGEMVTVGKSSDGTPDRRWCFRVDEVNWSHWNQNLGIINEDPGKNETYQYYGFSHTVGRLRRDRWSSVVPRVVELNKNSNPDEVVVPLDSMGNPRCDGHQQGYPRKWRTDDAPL
T2 sequence (Q9EPK8 whole entry): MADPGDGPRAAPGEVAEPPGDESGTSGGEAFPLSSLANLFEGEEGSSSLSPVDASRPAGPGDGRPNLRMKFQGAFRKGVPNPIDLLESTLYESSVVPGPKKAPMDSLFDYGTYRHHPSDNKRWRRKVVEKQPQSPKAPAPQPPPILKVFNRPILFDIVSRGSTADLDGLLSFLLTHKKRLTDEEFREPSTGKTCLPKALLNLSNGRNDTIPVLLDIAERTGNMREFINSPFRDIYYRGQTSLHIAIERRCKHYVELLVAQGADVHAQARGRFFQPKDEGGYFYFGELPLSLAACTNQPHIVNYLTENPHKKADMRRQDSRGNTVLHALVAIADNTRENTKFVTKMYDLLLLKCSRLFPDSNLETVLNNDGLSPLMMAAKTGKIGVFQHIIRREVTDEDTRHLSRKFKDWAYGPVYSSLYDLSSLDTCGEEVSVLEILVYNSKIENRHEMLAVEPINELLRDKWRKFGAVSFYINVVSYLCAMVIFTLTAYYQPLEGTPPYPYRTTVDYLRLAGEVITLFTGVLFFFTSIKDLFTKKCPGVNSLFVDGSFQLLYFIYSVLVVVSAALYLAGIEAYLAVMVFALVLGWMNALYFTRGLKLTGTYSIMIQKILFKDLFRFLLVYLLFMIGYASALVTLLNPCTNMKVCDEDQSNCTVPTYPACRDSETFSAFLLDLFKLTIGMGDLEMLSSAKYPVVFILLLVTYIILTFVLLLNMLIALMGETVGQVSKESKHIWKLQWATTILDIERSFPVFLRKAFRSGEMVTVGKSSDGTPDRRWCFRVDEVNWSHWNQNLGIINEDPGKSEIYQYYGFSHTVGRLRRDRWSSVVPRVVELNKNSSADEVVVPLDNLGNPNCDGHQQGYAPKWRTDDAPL

Regarding `N.N.N.N.N.N.N.N.N.N.N.N.N.N.[Cl-].[Cl-].[Cl-].[Cl-].[Cl-].[Cl-].[O-2].[O-2].[Ru+3].[Ru+3].[Ru+4]` [Ruthenium red], the “Inhibition of TRPV4” value at TRPV4 [1] was “known inhibitor of TRPV4”. In the case of `CCCCCCCCCC(=O)O[C@@H]1[C@@H](C)[C@@]2(O)[C@@H](C=C(CO)C[C@@]3(O)C(=O)C(C)=C[C@@H]23)[C@@H]2C(C)(C)[C@]12OC(=O)CCCCCCCCC` [PDD, 4α-phorbol 12,13-didecanoate], in series [2], the “Expression of cell-adhesion proteins like E-cadherin, b-catenin and paxillin” value is on record as “reduced”. In series [3], the “AKT, FAK and MAPK pathway activation” value is “stimulated”. As to `Cc1c(C(=O)Nc2cccc(C(F)(F)F)c2)cc(-c2ccccc2)n1CCCN1CCOCC1` [formula 1, 2-Methyl-1-[3-(4-morpholinyl)propyl]-5-phenyl-N-[3-(trifluoromethyl)phenyl]-1H-pyrrole-3-carboxamide], at endogenous TRPV4, the IC50 was 22 nM. In addition, the “Solubility in DMSO” value in series [4] (DMSO) is listed as 100 mM. Further, in series [4] (ethanol), the Solubility in ethanol is listed as 25 mM. For `Cc1c(C(=O)Nc2cccc(C(F)(F)F)c2)cc(-c2ccccc2)n1CCCN1CCOCC1` [formula 3], the “Effect on 4α-PDD-induced Ca2+ responses” value at TRPV4 [5] is “reduces”.
